Data on one compound can be found in EPA's ToxValDB 9.5 (doi:10.2903/j.efsa.2010.1389).

In data set [1] the test system is Anas platyrhynchos.
Data set [2] relates to Apis mellifera. Particulars: acute; duration: 48 hours; dermal; mortality.
The subject of data set [3] is Bibionidae. Particulars: chronic/long-term; duration: 28 days; development.
Data set [4] has as its system Colinus virginianus.
For data set [5], the system named is Daphnia magna. The settings on record: chronic/long-term; duration: 21 days; reproduction.
Data set [6] deals with Hypoaspis aculeifer. The settings on record: chronic/long-term; duration: 14 days.
Data set [7] deals with Lepomis macrochirus. Particulars: acute; duration: 96 hours; mortality.
Data set [8] concerns Oncorhynchus mykiss.
Data set [9] concerns Rattus norvegicus.
Data set [10] has as its system Tagia sp.
In data set [11] the test system is Typhlodromus pyri. The data set is described as follows: LR50; higher = less toxic. The settings on record: acute; duration: 7 days; mortality.

≈ marks a conversion by molar mass, not a printed value.

As to `CC(C)Oc1cc(-n2nc(C(C)(C)C)oc2=O)c(Cl)cc1Cl` [Oxadiazon], the NOEC in data set [1] (reproductive) turned out to be 106 mg/kg-day; in data set [3], 5 mg/L; in [4] (reproduction developmental) it was 90.8 mg/kg-day; in data set [5] it was 0.03 mg/L; in data set [6], 339 mg/kg; in data set [8] (chronic/long-term, duration: 60 days, other), 0.00088 mg/L. Moreover, in [10] (chronic/long-term, duration: 8 weeks, reproduction), the NOEC worked out at 133 mg/kg. Besides, the LC50 in [1] (short-term, oral, feed, mortality) is above 1140 mg/kg-day; in data set [4] (acute, oral, diet, mortality) it was above 730 mg/kg-day; in [7] it was 1.2 µg/mL (≈ 3.48 µM); in data set [8] (acute, duration: 96 hours, mortality), 1.2 µg/mL (≈ 3.48 µM); in data set [10] (acute, duration: 14 days, mortality) it was above 1000 mg/kg. Moreover, the LD50 in [2] is above 100 µg/piece; in data set [4] (acute, oral, mortality), above 2150 mg/kg-day; in [9] (acute, oral, mortality), above 5000 mg/kg-day. The NOAEL in [9] (chronic) is 15 mg/kg-day; in [9] (chronic, duration: 2 years, organ weight), 0.36 mg/kg-day; in [9] (developmental, development), 12 mg/kg-day; in data set [9] (reproduction developmental, reproduction), 5 mg/kg-day. Also, the LR50 in [11] stood at 150 g/ha.

For orientation: NOAEL means the highest tested level that showed no adverse finding.
